# Data published in patent publication US20030175438A1, “Treatments of solid substrates to enhance durability of treatments placed thereon” (priority 2002, published 2003).
# What was measured:
# [1] = Bromphenol Blue (BPB) Extraction Method, spectrophotometric at 595 nm (modified CTM 0824), on treated fabric; format: physicochemical; conditions: for Strike Rate - % BPB Extraction: No Boil, Table XIII
# Experimental: (§1) Sample Preparation: Fabric samples were obtained from the JoAnn fabric chain and were commercial fabrics. The fabrics were cut into rectangular size and were about 1½ inches by 2 inches, and were treated in 0.15 weight percent active antimicrobial agent placed in an Erlenmeyer flask. The agent used in this example was N, N-dimethyl-N-Octadecyl-3-(trimethoxysilyl)propanaminium chloride. The treatment solutions were allowed to hydrolyze from the trimethoxysilyl form to the trisilanol form before adding the fabrics. This takes only a few minutes to essentially complete. The solution temperature was raised to 100° C. before treating the fabrics for 60 seconds by immersion in the solutions with moderate agitation of the solution within the flask. After removing the samples from the hot solution, they were nip rolled to remove excess liquid. Wet Weight Pickup (WWP) was targeted to 100%. The samples were air dried before testing unless otherwise noted. The Extraction, stated in percent, was measured using the Bromphenol Blue Extraction Method using spectrophotometric determination. This method is CTM 0824, which has been modified for use herein in the following manner. The chlorinated solvent has been eliminated and the wavelength is 595 nm. Further, Dow Corning® A521 has been substituted for the Triton.RTM. X-100 wetting agent of the test. What is measured is the diminution of the BPB Absorbance at 595 nm relative to the BPB standard solution and it is reported in percent Extraction. Antimicrobial efficacy was determined using the CTM-0923 Dynamic Shake Flask Test unless otherwise stated.
# The antimicrobial agent used in this example was the same as that used in example 1. The samples were handled the same as in example 1 with the exception of the following. Samples were air and/or oven dried before testing. The % Extraction was measured using the BPB Extraction Method using spectrophotometric determination at 595 nm. If determined, antimicrobial efficacy was determined using the CTM-0923 Dynamic Shake Flask Test. Co-treatments the addition of the fabric to a 0.20 molar solution of the anion plus 0.15 WPA antimicrobial agent. The co-treatment is carried out at 100° C., and the fabric was moderately agitated for 60 seconds. The antimicrobial treatment is the addition of the fabric to a solution of 0.15 WPA antimicrobial agent held at 100° C. with moderate agitation for 60 seconds. Excess solution is removed from the samples, and the WWP is determined by weighing. Boiling was done with 200 milliliters of distilled water in a glass container in a microwave oven. Power setting was 30%, and the solution was gently boiled for 30 minutes. Sample size was nominally 1 gram and fresh water was used for each boiling study. The testing results can be found on Table XIII to XIV, respectively, infra. To differentiate between the application rate of the antimicrobial on the fabric, 25% of the normal sample size, or 0.25 grams of fabric was used to obtain the BPB Extraction values that ranged between 5 and 99%. This yielded values of percent BPB extraction that were in the linear range of the test procedure. Using larger samples creates an inaccurate test.
# [2] = system: E. coli; test: CTM-0923 Dynamic Shake Flask Test (antimicrobial efficacy of treated fabric); format: cell-based; set-up: concentration or dose not given beside the values
# Experimental: as §1, with “The fabrics were cut into rectangular size and were about 1½ inches by 2 inches, and were treated in 0.15 weight percent active antimicrobial agent placed in an Erlenmeyer flask. The agent used in this example was N, N-dimethyl-N-Octadecyl-3-(trimethoxysilyl)propanaminium chloride.” left out, “Wet Weight Pickup (WWP) was targeted to 100%.” left out, “A521” left out, “stated. Samples were air dried before testing. The % extraction was measured using the BPB extraction Method using spectrophotometric determination at 595 nm. Antimicrobial efficacy was determined, when applicable, using the ASTM CTM 0923 Dynamic Shake Flask Test. The substrate may be either wet or dry. The testing results can be found on Tables XI and XII, respectively, infra.” for “stated.”
structure (smiles),measurement,setting,value
"CCCCCCCCCCCCCCCCCC[N+](C)(C)CCC[Si](OC)(OC)OC.[Cl-] [AMT, N, N-dimethyl-N-Octadecyl-3-(trimethoxysilyl)propanaminium chloride]",BOILED IN WATER % EXTRACTION,"[1]; 130° C./30 minutes, Table XII",27%
same,% BPB EXTRACTION CHANGE,"[1]; COTTON, boiled vs not boiled, Table IV",−1%
same,EXTRACTION CHANGE,"[1]; COTTON, boiled vs not boiled, Table VI",0%
same,% Extraction @ 595 nm,"[1]; NYLON, boiled 30 minutes, Table VI",11%
same,% BPB EXTRACTION @ 595 nm,"[1]; NYLON, boiled, Table IX",19%
same,% BPB EXTRACTION @ 595 nm,"[1]; NYLON, not boiled, Table IX",85%
same,Boiling Durability % BPB EXTRACTION @ 595 nm,"[1]; NYLON, not boiled, Table XVII",80%
same,Strike Rate - % BPB Extraction,"[1]; Nylon, 0.25 grams of fabric",8.01%
same,Strike Rate - % BPB Extraction,"[1]; Nylon, treatment at pH = 11",45.1%
same,Strike Rate - % BPB Extraction,"[1]; PET Staple, treatment at pH = 11",75.82%
same,Boiling Durability - % BPB Extraction,"[1]; PET, Boil 30 min., Table XIV",17.9%
same,Strike Rate - % BPB Extraction,"[1]; PET, treatment at pH = 11",62.57%
same,% BPB EXTRACTION @ 595 nm,"[1]; PET, boiled 30 minutes, Table XV",36%
same,% EXTRACTION CHANGE,"[1]; PET, boiled vs not boiled, Table XVII",−64%
same,% BPB EXTRACTION @ 595 nm,"[1]; PET, not boiled, Table III",94%
same,Strike Rate - % BPB Extraction,"[1]; Rayon, 0.25 grams of fabric",6.94%
same,Efficacy - % Reduction,"[2]; ACRYLIC/MODACRYLIC, boiled 30 minutes, Table V",84%
same,Efficacy - % Reduction,"[2]; ACRYLIC/MODACRYLIC, not boiled, Table V",90%
same,Efficacy - % Reduction,"[2]; COTTON, boiled 30 minutes, Table V",99%
same,DSF - % REDUCTION,"[2]; COTTON, boiled 30 minutes, Table VIII",99%
same,DSF - % REDUCTION,"[2]; COTTON, boiled, Table X",93%
same,Efficacy - % Reduction,"[2]; COTTON, not boiled, Table V",99%
same,DSF - % REDUCTION,"[2]; COTTON, not boiled, Table VIII",99%
same,DSF - % REDUCTION,"[2]; COTTON, not boiled, Table X",89%
same,Efficacy - % Reduction,"[2]; NYLON, boiled 30 minutes, Table II",84%
same,Efficacy - % Reduction,"[2]; NYLON, boiled 30 minutes, Table V",19%
same,DSF - % REDUCTION,"[2]; NYLON, boiled 30 minutes, Table VIII",22%
same,DSF - % REDUCTION,"[2]; NYLON, boiled, Table X",99%
same,Efficacy - % Reduction,"[2]; NYLON, not boiled, Table II",90%
same,Efficacy - % Reduction,"[2]; NYLON, not boiled, Table V",99%
same,DSF - % REDUCTION,"[2]; NYLON, not boiled, Table VIII",99%
same,DSF - % REDUCTION,"[2]; NYLON, not boiled, Table X",99%
same,Efficacy - % Reduction,"[2]; PET, boiled 30 minutes, Table II",99%
same,DSF - % REDUCTION,"[2]; PET, boiled 30 minutes, Table VIII",91%
same,DSF - % REDUCTION,"[2]; PET, boiled, Table X (untreated control 50)",74%
same,Efficacy - % Reduction,"[2]; PET, not boiled, Table II",99%
same,DSF - % REDUCTION,"[2]; PET, not boiled, Table VIII",99%
same,DSF - % REDUCTION,"[2]; PET, not boiled, Table X (untreated control 50)",79%
same,Efficacy - % Reduction,"[2]; RAYON, boiled 30 minutes, Table II",19%
same,DSF - % REDUCTION,"[2]; RAYON, boiled 30 minutes, Table VIII",94%
same,DSF - % REDUCTION,"[2]; RAYON, boiled, Table X",99%
same,Efficacy - % Reduction,"[2]; RAYON, not boiled, Table II",99%
same,DSF - % REDUCTION,"[2]; RAYON, not boiled, Table VIII",99%
same,DSF - % REDUCTION,"[2]; RAYON, not boiled, Table X",99%
